Measured values taken from US20250304560A1, “MODULATORS OF NLRP3 INFLAMMASOME AND RELATED PRODUCTS AND METHODS” (Neumora Therapeutics, Inc., priority 2022, published 2025).
Read-outs that look alike come from different tables or passages of the source.

Tests used:
IL-6 = IL-6 AlphaLISA in LPS-primed THP1 macrophages; settings: for IC50: Homo sapiens
hERG channels = biological target: T1, hERG channels (Homo sapiens, UniProt Q12809); assay: hERG assay, whole-cell patch-clamp in CHO-hERG cells; assay type: cell-based; settings: for IC50: whole-cell patch-clamp, CHO-hERG cells
T1 construct: host or cells: CHO-hERG cells
Protocol: CHO-hERG cells (Sophion Biosciences (Ballerup, Denmark), subcultured and frozen in WuXi AppTec (Suzhou) Co., Ltd.), stored in liquid nitrogen, were tested and determined to be free from mycoplasma contamination. Cells were not used after the 30th passage. CHO-hERG cells were cultured in a humidified incubator of 5% CO2 (4% to 8%) in air at 37° C. (±2° C.). The cells were recovered with recovery medium (F12 medium with 10% fetal bovine serum), subcultured in complete medium (F12 medium, supplemented with 10% fetal bovine serum, 1% Geneticin® selective antibiotic (G418), 89 μg/mL Hygromycin B (HB)), and the culture medium was switched to recovery medium in the last subculture before patch-clamp experiment.
To determine the compounds' IC50, select compounds (“test articles”) were dissolved into DMSO, and then diluted with ECS to get working solutions. Five concentrations of 0.3, 1, 3, 10, and 30 μM were tested. Two replicate cells for each concentration were tested.
Exponentially growing CHO-hERG cells were collected and suspended in extracellular solution for use. The hERG current was recorded at physiological temperature (33.0° C. to 37.0° C.) using whole-cell patch-clamp techniques. Output signals from the patch-clamp amplifier were digitized and low-pass filtered at 2.9 KHz. The recording was controlled with Patchmaster Pro software. The recording chamber with seeded cells was mounted on an inverted microscope stage. A cell in the recording chamber was randomly selected for testing. The cell was continuously perfused from the perfusion system. A micropipette filled with ICS was used as recording electrode in the manual patch-clamp study. The micropipette was prepared on the day of the patch-clamp experiment using glass capillaries (BF150-117-10, SUTTER INSTRUMENT USA). The pipette resistance (Rp) was within 2 to 5 MΩ with ICS filled. From the holding potential of-80 mV, the voltage was increased to +60 mV for 850 ms to open the hERG channels. After that, the voltage was decreased to-50 mV for 1275 ms, causing a “rebound” or tail current, the peak tail current was measured and collected for data analysis. Finally, the voltage was decreased to the holding potential (−80 mV). This command voltage protocol was repeated every 15 s continuously during the test article application.
During the initial recording period with vehicle control working solution, the peak tail current amplitude was monitored until it had been stable for at least 3 sweeps. Cells were then perfused with test article/positive control working solutions until the peak tail current amplitude reached steady state. Steady state was considered reached when three consecutive super-imposable peak tail currents were collected. At this point, cells were once again perfused with next concentration of test article. One or more test articles/positive control or different concentrations of the same test article were tested on each cell with vehicle control washout until the current amplitude returned to values at least 80% of those measured before application of test article. […] At least 2 replicate cells for each concentration were tested. […] (Milnes, J. T., et al.)
Seal criteria: When acquiring whole-cell configuration, a holding potential (e.g.,-80 mV) was applied while membrane parameters were collected (Cm, Rm and Rs). A “good” whole-cell recording was generally defined as: series resistance (Rs) was less than 10 MΩ; membrane resistance (Rm) was more than 500 MΩ and membrane capacitance (Cm) was less than 100 pF. Current amplitude: The peak current amplitude must be between 400 pA and 5000 pA before the test article/positive control application; otherwise the cell was discarded. Leak criteria: At-80 mV holding potential, the absolute leak current value must be less than 200 pA. The amplitude of current was adjusted with leak current at-80 mV. The sweeps which absolute leak current value was more than 200 pA was not used in data analysis.

NLRP3 inflammasome = NLRP3 inflammasome (Homo sapiens, UniProt Q96P20); assay: NLRP3 inflammasome activation in THP1 macrophages, IL-1β AlphaLISA
[1] = THP-1, read-out: IL-6 Activity (μM), THP1 macrophages, PMA, LPS priming, nigericin 6.7 uM
[2] = IL-1β Activity (nM), THP1 macrophages, PMA, LPS priming, nigericin 6.7 uM activation

T1 sequence (Q12809 whole entry): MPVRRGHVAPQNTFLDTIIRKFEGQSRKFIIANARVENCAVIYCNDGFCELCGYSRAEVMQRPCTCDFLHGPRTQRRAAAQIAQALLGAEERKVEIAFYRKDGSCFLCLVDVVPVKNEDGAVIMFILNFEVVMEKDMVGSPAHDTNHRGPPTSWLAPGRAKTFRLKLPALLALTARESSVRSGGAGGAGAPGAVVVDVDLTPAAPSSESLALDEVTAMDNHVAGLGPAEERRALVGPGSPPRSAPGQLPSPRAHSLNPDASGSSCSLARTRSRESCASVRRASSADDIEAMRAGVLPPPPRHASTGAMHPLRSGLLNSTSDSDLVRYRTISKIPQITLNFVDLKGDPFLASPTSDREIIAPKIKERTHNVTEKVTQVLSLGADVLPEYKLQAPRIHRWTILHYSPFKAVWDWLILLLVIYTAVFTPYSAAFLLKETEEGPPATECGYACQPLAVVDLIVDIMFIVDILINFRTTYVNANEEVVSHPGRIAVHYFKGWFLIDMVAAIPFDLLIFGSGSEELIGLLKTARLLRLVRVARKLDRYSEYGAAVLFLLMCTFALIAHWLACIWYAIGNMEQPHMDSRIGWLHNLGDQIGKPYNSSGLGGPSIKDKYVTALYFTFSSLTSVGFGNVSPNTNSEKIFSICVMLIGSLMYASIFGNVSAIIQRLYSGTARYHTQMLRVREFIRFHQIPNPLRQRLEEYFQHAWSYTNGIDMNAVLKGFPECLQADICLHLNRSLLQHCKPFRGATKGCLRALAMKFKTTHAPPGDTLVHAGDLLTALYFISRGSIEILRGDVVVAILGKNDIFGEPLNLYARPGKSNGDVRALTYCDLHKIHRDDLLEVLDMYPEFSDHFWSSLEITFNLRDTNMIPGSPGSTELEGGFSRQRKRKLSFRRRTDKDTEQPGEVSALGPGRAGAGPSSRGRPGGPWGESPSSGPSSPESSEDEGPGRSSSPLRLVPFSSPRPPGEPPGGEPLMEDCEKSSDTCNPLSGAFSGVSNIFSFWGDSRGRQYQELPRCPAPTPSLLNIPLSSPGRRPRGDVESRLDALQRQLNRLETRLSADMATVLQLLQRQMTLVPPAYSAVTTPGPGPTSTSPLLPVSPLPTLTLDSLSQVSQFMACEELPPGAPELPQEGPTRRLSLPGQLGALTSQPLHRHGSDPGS
NLRP3 inflammasome, sequence (Q96P20 whole entry): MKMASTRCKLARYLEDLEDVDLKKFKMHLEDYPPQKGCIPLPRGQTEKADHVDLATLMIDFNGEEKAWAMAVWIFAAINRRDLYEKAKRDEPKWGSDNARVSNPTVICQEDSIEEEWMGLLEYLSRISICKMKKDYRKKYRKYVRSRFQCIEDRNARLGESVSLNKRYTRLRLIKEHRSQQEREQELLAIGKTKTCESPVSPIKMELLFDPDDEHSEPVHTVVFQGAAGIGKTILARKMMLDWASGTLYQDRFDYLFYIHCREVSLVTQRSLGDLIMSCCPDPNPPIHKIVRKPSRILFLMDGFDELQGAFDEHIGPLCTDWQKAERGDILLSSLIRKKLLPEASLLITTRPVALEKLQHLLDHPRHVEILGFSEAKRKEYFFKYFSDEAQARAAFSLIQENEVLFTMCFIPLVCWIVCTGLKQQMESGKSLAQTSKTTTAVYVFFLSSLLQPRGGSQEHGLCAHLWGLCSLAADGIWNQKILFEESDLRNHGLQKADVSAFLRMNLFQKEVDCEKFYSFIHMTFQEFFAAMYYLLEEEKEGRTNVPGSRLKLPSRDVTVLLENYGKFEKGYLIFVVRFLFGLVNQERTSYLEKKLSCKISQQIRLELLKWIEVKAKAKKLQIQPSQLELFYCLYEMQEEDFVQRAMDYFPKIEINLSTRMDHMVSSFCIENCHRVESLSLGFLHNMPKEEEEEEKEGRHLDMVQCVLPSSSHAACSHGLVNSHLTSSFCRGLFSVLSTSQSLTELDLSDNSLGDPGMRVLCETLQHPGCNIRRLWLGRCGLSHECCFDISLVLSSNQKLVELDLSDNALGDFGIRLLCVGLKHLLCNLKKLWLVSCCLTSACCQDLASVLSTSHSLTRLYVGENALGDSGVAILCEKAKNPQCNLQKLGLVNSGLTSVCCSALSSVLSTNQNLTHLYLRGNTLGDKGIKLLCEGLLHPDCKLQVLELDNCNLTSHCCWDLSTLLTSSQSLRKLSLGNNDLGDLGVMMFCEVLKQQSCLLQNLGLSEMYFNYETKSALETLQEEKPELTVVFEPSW

## Cc1cc(O[C@@H]2CCCN(C)C2)nnc1-c1ccc(F)cc1O [compound 34]
IL-6; THP-1, read-out: IL-6 Activity (μM)
  IC50: > 10 µM
hERG channels; 33.0-37.0 °C, Table 10
  IC50: > 30 µM
NLRP3 inflammasome
  IC50: 10 to 100 nM

## Cc1cc(N[C@@H]2CCCN(C)C2)nnc1-c1ccc(C#N)cc1O [compound 51]
IL-6
  IL-6 activity (in words): potent
IL-6; [1]
  IC50: 5 to 10 µM
IL-6; THP-1, read-out: IL-6 Activity, LPS-primed THP1 macrophages, Table 11 comparison
  IC50: 5 to 10 µM
hERG channels
  hERG inhibition (in words): unexpectedly low
hERG channels; 33.0-37.0 °C, Table 10
  IC50: > 30 µM
hERG channels; Table 11 comparison
  IC50: > 30 µM
NLRP3 inflammasome
  IL-1ß activity (in words): potent
NLRP3 inflammasome; [2]
  IC50: < 1 nM
NLRP3 inflammasome; IL-1β Activity, THP1 macrophages, Table 11 comparison
  IC50: < 1 nM

## Cc1cc(N[C@@H]2CCCN(C)C2)nnc1-c1cccc(C)c1O [compound 67]
IL-6; [1]
  IC50: 5 to 10 µM
hERG channels; 33.0-37.0 °C, Table 10
  IC50: 10 to 20 µM
NLRP3 inflammasome; [2]
  IC50: < 1 nM
